According to article PMC12152147, “DDB1 engagement defines the selectivity of S656 analogs for cyclin K degradation over CDK inhibition” (EMBO Reports, 2025):
“And” between values parts separate entries of the source, which are not always exact repeats. Identical values can stand only once. Like-named read-outs stand apart in the source and are kept apart here.

Tests used:
[1] = test system: primary AML specimens; test: Dose-response assays in primary AML specimens (6 days, CellTiterGlo); format: cell-based, human; conditions: Homo sapiens, 144 h, 6 days, read-out: IC50
Method: Freshly thawed primary AML specimens were used for chemical screens. Cryopreserved cells were thawed at 37 °C in IMDM containing 20% FBS and DNase I (100 μg/mL). Cells were resuspended in IMDM supplemented with 15% BIT (BSA, insulin, transferrin; StemCell Technologies), 100 ng/mL SCF, 50 ng/mL FLT3L, 20 ng/mL IL3, 20 ng/mL G-CSF, 10^−4 mol/L b-mercaptoethanol, gentamicin (50 μg/mL), ciprofloxacin (10 μg/mL), SR1 (500 nmol/L) and UM729 (500 nmol/L). Cells were plated in 384-well white plates, 5000 cells per well in 50 μL. Compounds were dissolved in DMSO, diluted in media immediately before use and added to seeded cells at the unique concentration of 1 μM. Control wells received DMSO (0.1%) only. Cell viability was evaluated after 6 days in culture using the CellTiterGlo assay according to the manufacturer’s instruction. Percentage of inhibition for dose response curves was calculated as 100 – (100 × (mean luminescence [compound]/mean luminescence [DMSO])). Dose response curves were generated using nonlinear regression in GraphPad Prism version.
Dose-response assays in primary AML specimens were performed as in chemical screen (see above) with the exception that compounds were tested in serial dilution (8 dilutions, 1:4, 10 μM down to 0.5 nM). Dose-response assays in OCI-AML5 cell line were conducted similarly with the following modifications: 300 cells per well were seeded in 50 μL of cell line media and cell viability was evaluated after 4 days in culture.

[2] = test system: OCI-AML5 cells; test: Dose-response proliferative assay in OCI-AML5 (4 days, CellTiterGlo); format: cell-based, H. sapiens; conditions: Homo sapiens, OCI-AML-5, OCI-AML5 cells; read-out: IC50 in AML5
How it was run: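 Viability assessed after 4 days of compound exposure at 37 °C, 5% CO2. Compounds tested as 8 dilutions (1:4, 10 μM to 0.5 nM) on 300 OCI-AML5 cells/well grown in αMEM with 10% heat-inactivated FBS and 10 ng/mL GM-CSF.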

[3] = test system: cyclin KeGFP; test: Cyclin KeGFP reporter system (eGFP/mCherry MFI by flow cytometry);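 for % degradation cyclin K-eGFP: 10 μM compound for 3 h relative to DMSO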; format: cell-based, H. sapiens
How it was run: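 Degradation read as eGFP-to-mCherry MFI ratio relative to DMSO controls, from flow cytometry of the selected G7 clone of OCI-AML5 cells transduced with the cyclin KeGFP reporter.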

[4] = target: T1, CDK1 (Homo sapiens, UniProt P06493); test: CDK1 in vitro kinase activity, single concentration 1 μM; format: biochemical; conditions: single concentration 1 μM
T1 construct: purchased BPS Bioscience 79597
T1 sequence (P06493 whole entry): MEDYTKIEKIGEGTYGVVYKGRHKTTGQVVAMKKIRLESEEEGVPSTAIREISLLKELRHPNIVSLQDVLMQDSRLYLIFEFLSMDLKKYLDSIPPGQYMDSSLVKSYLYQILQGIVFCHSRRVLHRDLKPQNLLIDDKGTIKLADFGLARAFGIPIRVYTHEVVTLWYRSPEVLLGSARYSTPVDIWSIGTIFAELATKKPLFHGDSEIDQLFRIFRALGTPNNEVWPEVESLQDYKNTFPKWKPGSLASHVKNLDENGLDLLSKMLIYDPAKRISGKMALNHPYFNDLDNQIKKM
T1 sequence (P14635 whole entry partner): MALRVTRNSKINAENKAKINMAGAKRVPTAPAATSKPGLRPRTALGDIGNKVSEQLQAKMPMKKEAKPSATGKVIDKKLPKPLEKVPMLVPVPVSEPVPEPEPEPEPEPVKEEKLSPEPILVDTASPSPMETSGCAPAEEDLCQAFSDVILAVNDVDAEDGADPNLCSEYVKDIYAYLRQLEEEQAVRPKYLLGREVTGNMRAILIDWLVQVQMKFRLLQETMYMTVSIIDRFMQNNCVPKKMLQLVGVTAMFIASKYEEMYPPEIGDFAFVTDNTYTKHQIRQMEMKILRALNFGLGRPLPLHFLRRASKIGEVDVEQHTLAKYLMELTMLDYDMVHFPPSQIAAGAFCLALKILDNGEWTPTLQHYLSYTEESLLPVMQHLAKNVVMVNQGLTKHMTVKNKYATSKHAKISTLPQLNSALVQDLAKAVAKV
Method: (§1) Kinase activity was assessed using the kinase assay kits from BPS Bioscience for CDK1, CDK9 and CDK12 with Kinase Glo MAX in duplicates. Compounds were tested at a single concentration of 1 μM for CDK1 and CDK9 activity, and in a dilution ranging from 0.64 nM to 50 μM for CDK12 activity. Chemiluminescence was read using the Neo Synergy BioTek plate reader.

[5] = target: T2, CDK9/CyclinT (Homo sapiens, UniProt P50750); test: CDK9/CyclinT in vitro kinase activity, single concentration 1 μM; format: biochemical; conditions: single concentration 1 μM
T2 construct: purchased BPS Bioscience 79628
T2 sequence (P50750 whole entry): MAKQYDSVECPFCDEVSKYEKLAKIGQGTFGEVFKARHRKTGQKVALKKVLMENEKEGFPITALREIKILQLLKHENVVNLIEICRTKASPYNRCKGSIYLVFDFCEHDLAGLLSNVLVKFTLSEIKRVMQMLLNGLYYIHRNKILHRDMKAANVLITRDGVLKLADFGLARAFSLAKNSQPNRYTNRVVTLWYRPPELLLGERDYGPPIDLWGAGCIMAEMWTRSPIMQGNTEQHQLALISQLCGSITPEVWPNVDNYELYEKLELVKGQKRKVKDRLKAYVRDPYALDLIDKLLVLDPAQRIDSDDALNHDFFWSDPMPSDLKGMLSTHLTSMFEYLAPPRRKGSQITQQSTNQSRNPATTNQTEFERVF
T2 sequence (O60563 whole entry partner): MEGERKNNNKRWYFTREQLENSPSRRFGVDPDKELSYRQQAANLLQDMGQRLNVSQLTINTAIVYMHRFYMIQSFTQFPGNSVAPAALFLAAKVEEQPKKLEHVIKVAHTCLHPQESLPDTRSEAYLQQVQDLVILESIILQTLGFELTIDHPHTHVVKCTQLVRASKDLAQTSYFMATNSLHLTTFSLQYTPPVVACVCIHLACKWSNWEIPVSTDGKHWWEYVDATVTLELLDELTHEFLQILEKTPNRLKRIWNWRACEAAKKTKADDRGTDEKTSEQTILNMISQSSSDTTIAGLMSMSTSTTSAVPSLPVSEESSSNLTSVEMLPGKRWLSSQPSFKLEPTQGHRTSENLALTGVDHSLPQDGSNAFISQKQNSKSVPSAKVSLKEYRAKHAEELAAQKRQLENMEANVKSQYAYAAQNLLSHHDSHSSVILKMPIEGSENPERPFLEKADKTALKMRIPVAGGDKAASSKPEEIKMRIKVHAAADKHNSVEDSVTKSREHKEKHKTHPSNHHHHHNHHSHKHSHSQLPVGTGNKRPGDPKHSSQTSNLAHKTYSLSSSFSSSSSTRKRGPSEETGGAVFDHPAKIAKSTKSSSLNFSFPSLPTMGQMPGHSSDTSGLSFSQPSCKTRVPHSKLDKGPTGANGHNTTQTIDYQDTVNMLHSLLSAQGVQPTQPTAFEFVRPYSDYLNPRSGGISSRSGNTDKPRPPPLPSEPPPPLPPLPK
Method: as §1

[6] = test system: OCI-AML5 cells expressing shRNAs targeting CDK1, 2, 4, 7, 9, cyclin K; test: Dose response in OCI-AML5 expressing shRNAs targeting CDK1, 2, 4, 7, 9, cyclin K or control; format: cell-based, H. sapiens
[7] = test system: OCI-AML5 cells expressing shRNA targeting CUL4A or CUL4B; test: Dose response in OCI-AML5 expressing shRNAs targeting CUL4A, CUL4B or control; format: cell-based, H. sapiens; conditions: ratio of IC50 in shCUL4A vs shCTRL OCI-AML5 cells

Cn1cc(-n2cnc3c(NCc4nc5cc(Cl)c(Cl)cc5[nH]4)nc(N4CCOCC4)nc32)cn1 [SR4835]
IC50 ([1]; primary AML specimen 03H109): 23.9 nM
IC50 ([1]; primary AML specimen 04H055): 37.9 nM
IC50 ([1]; primary AML specimen 04H096): 37.8 nM
IC50 ([1]; primary AML specimen 04H138): 46.2 nM
IC50 ([1]; primary AML specimen 05H113): 37.3 nM
IC50 ([1]; primary AML specimen 05H149): 45.5 nM
IC50 ([1]; primary AML specimen 05H193): 42.9 nM
IC50 ([1]; primary AML specimen 06H088): 40.2 nM
IC50 ([1]; primary AML specimen 06H117): 34.3 nM
IC50 ([1]; primary AML specimen 06H151): 28.5 nM
IC50 ([1]; primary AML specimen 07H003): 44.1 nM
IC50 ([1]; primary AML specimen 07H131): 99 nM
IC50 ([1]; primary AML specimen 07H144): 31.9 nM
IC50 ([1]; primary AML specimen 07H155): 55.9 nM
IC50 ([1]; primary AML specimen 08H018): 41.3 nM
IC50 ([1]; primary AML specimen 08H021): 29.8 nM
IC50 ([1]; primary AML specimen 08H056): 70.5 nM
IC50 ([1]; primary AML specimen 08H063): 125 nM
IC50 ([1]; primary AML specimen 08H085): 38.9 nM
IC50 ([1]; primary AML specimen 08H108): 41.7 nM
IC50 ([1]; primary AML specimen 08H118): 33.5 nM
IC50 ([1]; primary AML specimen 09H016): 35.3 nM
IC50 ([1]; primary AML specimen 09H070): 124 nM
IC50 ([1]; primary AML specimen 10H014): 38 nM
IC50 ([1]; primary AML specimen 10H046): 38.8 nM
IC50 ([1]; primary AML specimen 10H107): 37.1 nM
IC50 ([1]; primary AML specimen 10H127): 48 nM
IC50 ([1]; primary AML specimen 10H161): 42.2 nM
IC50 ([1]; primary AML specimen 10H174): 38.2 nM
IC50 ([1]; primary AML specimen 11H008): 45.7 nM
IC50 ([1]; primary AML specimen 11H019): 41 nM
IC50 ([1]; primary AML specimen 11H170): 141 nM
IC50 ([1]; primary AML specimen 11H217): 48.8 nM
IC50 ([1]; primary AML specimen 11H232): 39.8 nM
IC50 ([1]; primary AML specimen 12H033): 61.4 nM
IC50 ([1]; primary AML specimen 12H055): 44.7 nM
IC50 ([1]; primary AML specimen 12H148): 44.4 nM
IC50 ([1]; primary AML specimen 13H053): 55.9 nM
IC50 ([1]; primary AML specimen 15H045): 28.4 nM
IC50 ([1]; primary AML specimen 17H065): 59.1 nM
IC50 [2]: 18 nM
MFI of cyclin KeGFP over mCherry ([3]; OCI-AML5 G7 clone, 3 h, 10 μM, normalized to DMSO (=100)): 16.0 and 15.3 and 15.4
% degradation cyclin K-eGFP ([3]; cyclin K-eGFP reporter): 84%
inhibition at 1 µM [4]: 0%
inhibition at 1 µM [5]: 0%
IC50 ([6]; Homo sapiens, OCI-AML-5, 96 h, read-out: IC50, sh CDK1, OCI-AML5, 4 days): 25.2 nM
IC50 ([6]; Homo sapiens, OCI-AML-5, 96 h, read-out: IC50, sh CDK2, OCI-AML5, 4 days): 22.8 nM
IC50 ([6]; Homo sapiens, OCI-AML-5, 96 h, read-out: IC50, sh CDK4, OCI-AML5, 4 days): 17.4 nM
IC50 ([6]; Homo sapiens, OCI-AML-5, 96 h, read-out: IC50, sh CDK7, OCI-AML5, 4 days): 20.2 nM
IC50 ([6]; Homo sapiens, OCI-AML-5, 96 h, read-out: IC50, sh CDK9, OCI-AML5, 4 days): 21.4 nM
IC50 ([6]; Homo sapiens, OCI-AML-5, 96 h, read-out: IC50, sh Cyclin K, OCI-AML5, 4 days): 5.7 nM
IC50 ([6]; Homo sapiens, OCI-AML-5, 96 h, read-out: IC50, sh ctrl, OCI-AML5, 4 days): 21.2 nM
Class ([6]; class from shRNA IC50 profile and cyclin K-eGFP degradation): 1
IC50 ([6]; read-out: IC50, sh CDK1, OCI-AML5, 4 days): 22.7 nM and 35.9 nM
IC50 ([6]; read-out: IC50, sh CDK2, OCI-AML5, 4 days): 21.1 nM and 33.4 nM
IC50 ([6]; read-out: IC50, sh CDK4, OCI-AML5, 4 days): 20.7 nM and 17.8 nM
IC50 ([6]; read-out: IC50, sh CDK7, OCI-AML5, 4 days): 23.7 nM and 34.5 nM
IC50 ([6]; read-out: IC50, sh CDK9, OCI-AML5, 4 days): 17.3 nM and 16.7 nM
IC50 ([6]; read-out: IC50, sh Cyclin K, OCI-AML5, 4 days): 8.31 nM and 5.07 nM
IC50 ([6]; read-out: IC50, sh ctrl, OCI-AML5, 4 days): 17.9 nM and 15.9 nM
Ratio shCUL4A/shCTRL [7]: 4.77
